# From PMC6256357 (Chemical Science, 2018)
# Biological target: sirtuin 2 (SIRT2) (Homo sapiens, UniProt Q8IXJ6)
# Assay: trypsin-coupled fluorescence-based deacetylase assay
# Format: biochemical
# Chain of sirtuin 2 (SIRT2) (Q8IXJ6 2-389): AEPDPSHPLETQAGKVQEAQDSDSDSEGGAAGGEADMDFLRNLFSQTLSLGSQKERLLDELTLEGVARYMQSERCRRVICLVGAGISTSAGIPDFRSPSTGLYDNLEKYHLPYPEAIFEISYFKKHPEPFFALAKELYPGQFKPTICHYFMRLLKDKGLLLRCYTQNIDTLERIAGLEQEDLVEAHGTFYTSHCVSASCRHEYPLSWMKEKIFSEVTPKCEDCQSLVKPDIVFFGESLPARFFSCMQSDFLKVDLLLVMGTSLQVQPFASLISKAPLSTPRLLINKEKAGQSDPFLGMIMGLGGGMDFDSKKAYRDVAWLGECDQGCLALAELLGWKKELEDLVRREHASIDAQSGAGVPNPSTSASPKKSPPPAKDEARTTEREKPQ
compound,measurement,value
NC(=O)c1ccc[n+]([C@@H]2O[C@H](COP(=O)([O-])OP(=O)(O)OC[C@H]3O[C@@H](n4cnc5c(N)ncnc54)[C@H](O)[C@@H]3O)[C@@H](O)[C@H]2O)c1 [NAD^+],trypsin-coupled fluorescence-based deacetylase assay,in contrast to NAD^+ that could participate in SIRT2-catalyzed protein deacetylation
